From publication PMC12915131, “Balanced Expression of the Diiron Oxygenase BioE Is Essential for Biotin Homeostasis in Elizabethkingia meningoseptica” (Advanced Science, 2025) come the findings set out here.

The term Kd denotes the equilibrium constant for the complex coming apart. A low value points to a tighter complex.

For one assay, the target named is T1, EmBioE (BioE).
T1 construct: 6x His-tagged EmBioE
The assay can be described thus: SPR (Biacore, CM5 chip); supported by urea-PAGE inhibition of C18-ACP cleavage (Ki […]). Format: binding, Elizabethkingia meningoseptica.

For a further assay, the target named is T2, EmBioE.
T2 construct: gene bioE; 6x His-tagged EmBioE
Briefly: SPR, confirmed by MST; HPLC shows conversion to pimeloyl-CoA. Format: binding, Elizabethkingia meningoseptica. A general note: SPR reads the build-up and loss of mass on a sensor chip optically.

Turning to `C=CCn1c(SCC(=O)Nc2scc(-c3ccc(C)cc3)c2C(=O)OC)nnc1-c1ccc(N(C)C)cc1` [compound 466982, 466982], the Kd on EmBioE (BioE) was roughly 14.6 µM. Regarding `CCCCCCCCCCCCCCCCCC(=O)SCCNC(=O)CCNC(=O)[C@H](O)C(C)(C)COP(=O)(O)OP(=O)(O)OC[C@H]1O[C@@H](n2cnc3c(N)ncnc32)[C@H](O)[C@@H]1OP(=O)(O)O` [C18-CoA, stearoyl-CoA], the dissociation constant Kd at EmBioE is roughly 20.1 µM.
